Data reported in patent publication US6818663B2, “Diaminothiazoles” (Hoffmann-La Roches, priority 2002, dated 2004).

How the values were obtained:
Assay type in all cases: biochemical
human cyclin E-CDK2 = human cyclin E-CDK2 (Homo sapiens, UniProt P24941); experiment: FlashPlate kinase assay, cyclin E-CDK2, Rb substrate; conditions: recombinant cyclin E-CDK2, Rb phosphorylation, 1 μM ATP
Method: (§1) To determine inhibition of Cdk4, Cdk2 and Cdk1 activity, kinase assays were conducted using FlashPlate™ assays (NEN™-Life Science Products). FlashPlate assays were performed using recombinant human cyclin B-CDK1, human cyclin E-CDK2 or human cyclin D1-CDK4 complexes. GST-cyclinE (GST-cycE), CDK2, GST-cyclinB (GST-cycB), CDK1, GST-CDK4 and cyclin D1 (cycD1) cDNA clones in baculovirus vectors were provided by Dr. W. Harper at the Baylor College of Medicine, Houston, Tex. Proteins were co-expressed in High Five™ insect cells and the complex was purified on glutathione Sepharose resin (Pharmacia, Piscataway, N.J.) as previously described (Harper, J. W. et al. Cell 1993, 75, 805-816). A 6×-Histidine tagged truncated form of retinoblastoma (Rb) protein (amino acid 386-928) was used as the substrate for the cycD1-CDK4, cycB-CDK1 and the cycE-CDK2 assays (the expression plasmid was provided by Dr. Veronica Sullivan, Department of Molecular Virology, Roche Research Centre, Welwyn Garden City, United Kingdom). The Rb protein is a natural substrate for phosphorylation by CDK4, CDK2 and CDK1 (see Herwig and Strauss Eur. J. Biochem. Vol. 246 (1997) pp. 581-601 and the references cited therein).
(§2) The expression of the 62 Kd protein was under the control of an IPTG inducible promoter in an M15 E. coli strain. Cells were lysed by sonication and purification was carried out by binding lysates at pH 8.0 to a Ni-chelated agarose column pretreated with 1 mM imidazole. The resin was then washed several times with incrementally decreasing pH buffers to pH 6.0, and eluted with 500 mM imidazole. Eluted protein was dialysed against 20 mM HEPES pH 7.5, 30% glycerol, 200 mM NaCl, and 1 mM DTT. Purified Rb fusion protein stocks were quantitated for protein concentration, aliquoted, and stored at −70° C.
(§3) For all three kinase assays reported herein, 96-well FlashPlates were coated with Rb protein at 10 μg/ml, using 100 μl per well. Plates were incubated at 4° C. overnight or at room temperature for 3 hours on a shaker. To control for nonspecific phosphorylation, one row of wells was coated with 100 μl/well coating buffer (20 mM HEPES, 0.2 M NaCl). Plates were then washed twice with wash buffer (0.01% Tween 20 in phosphate-buffered saline). Compounds to be tested (“test compounds”) were added to the wells at 5×final concentration. Reactions were initiated by immediate addition of 40 μl reaction mix (25 mM HEPES, 20 mM MgCl2, 0.002% Tween 20, 2 mM DTT, 1 μM ATP, 4 nM ^33P-ATP) and a sufficient amount of enzyme to give counts that were at least 10-fold above background. Plates were incubated at room temperature on a shaker for 30 minutes. Plates were washed four times with the wash buffer, sealed, and counted on the TopCount scintillation counter (Packard Instrument Co., Downers Grove, Ill.]. The percent inhibition of Rb phosphorylation, which is a measure of the inhibition of CDK activity, was determined according to the following formula: [formula]
(§4) where “test compound” refers to the average counts per minute of the test duplicates, “nonspecific” refers to the average counts per minute when no CyclinD/Cdk4, etc., was added, and “total” refers to the average counts per minute when no compound was added. The IC50 value is the concentration of test compound that reduces by 50% the protein-kinase induced incorporation of the radiolabel under the test conditions described.

human cyclin D1-CDK4 = human cyclin D1-CDK4 (Homo sapiens, UniProt P11802); experiment: FlashPlate kinase assay, cyclin D1-CDK4, Rb substrate; conditions: recombinant cyclin D1-CDK4, Rb phosphorylation, 1 μM ATP
Method: as §1, §2, §3, §4

human cyclin B-CDK1 = human cyclin B-CDK1 (Homo sapiens, UniProt P06493); experiment: FlashPlate kinase assay, cyclin B-CDK1, Rb substrate; conditions: recombinant cyclin B-CDK1, Rb phosphorylation, 1 μM ATP
Method: as §1, §2, §3, §4

Chain of human cyclin B-CDK1 (P06493 whole entry): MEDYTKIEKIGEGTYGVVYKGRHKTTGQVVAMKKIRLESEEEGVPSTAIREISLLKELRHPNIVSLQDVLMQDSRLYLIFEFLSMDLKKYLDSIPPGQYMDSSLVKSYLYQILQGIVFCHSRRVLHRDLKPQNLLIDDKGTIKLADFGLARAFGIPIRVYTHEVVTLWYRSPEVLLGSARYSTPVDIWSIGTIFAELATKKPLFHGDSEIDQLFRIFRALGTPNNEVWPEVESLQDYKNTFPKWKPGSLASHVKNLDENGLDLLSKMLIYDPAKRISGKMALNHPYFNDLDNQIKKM
Chain of human cyclin B-CDK1 (P14635 whole entry partner): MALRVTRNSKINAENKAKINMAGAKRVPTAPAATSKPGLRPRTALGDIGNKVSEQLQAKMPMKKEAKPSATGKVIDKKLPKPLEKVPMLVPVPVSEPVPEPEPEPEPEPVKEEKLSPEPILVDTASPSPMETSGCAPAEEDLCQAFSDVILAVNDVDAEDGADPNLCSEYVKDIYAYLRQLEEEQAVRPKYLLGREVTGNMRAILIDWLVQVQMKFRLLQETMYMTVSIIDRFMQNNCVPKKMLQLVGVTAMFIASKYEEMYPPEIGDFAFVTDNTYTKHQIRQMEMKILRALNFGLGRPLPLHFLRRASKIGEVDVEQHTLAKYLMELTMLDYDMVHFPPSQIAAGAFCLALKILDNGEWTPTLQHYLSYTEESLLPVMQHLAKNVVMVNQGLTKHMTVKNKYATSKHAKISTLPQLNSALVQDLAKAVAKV
Chain of human cyclin D1-CDK4 (P11802 whole entry): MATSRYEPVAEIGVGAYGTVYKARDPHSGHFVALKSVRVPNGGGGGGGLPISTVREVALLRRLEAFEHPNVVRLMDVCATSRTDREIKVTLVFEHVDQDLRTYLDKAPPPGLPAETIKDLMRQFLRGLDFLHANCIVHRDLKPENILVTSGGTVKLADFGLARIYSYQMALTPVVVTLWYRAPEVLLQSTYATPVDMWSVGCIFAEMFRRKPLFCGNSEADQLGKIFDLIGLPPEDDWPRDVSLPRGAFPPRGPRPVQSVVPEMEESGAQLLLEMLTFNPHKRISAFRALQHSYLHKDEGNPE
Chain of human cyclin D1-CDK4 (P24385 whole entry partner): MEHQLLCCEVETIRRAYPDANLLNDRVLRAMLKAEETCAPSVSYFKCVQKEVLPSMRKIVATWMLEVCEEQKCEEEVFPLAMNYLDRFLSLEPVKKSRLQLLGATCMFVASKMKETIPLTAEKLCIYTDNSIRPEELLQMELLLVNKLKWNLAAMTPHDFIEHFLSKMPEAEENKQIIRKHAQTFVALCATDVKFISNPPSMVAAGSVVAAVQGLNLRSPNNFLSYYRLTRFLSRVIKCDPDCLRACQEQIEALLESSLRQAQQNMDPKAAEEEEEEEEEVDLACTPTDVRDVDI

Row | Compound | IC50 (human cyclin E-CDK2) [nM] | IC50 (human cyclin D1-CDK4) [nM] | IC50 (human cyclin B-CDK1) [nM]
1 | Nc1nc(Nc2ccc(OCCN3CCOCC3)cc2)sc1C(=O)c1ccc2c(c1)OCCO2 [Example 55, [4-Amino-2-[4-(2-morpholin-4-yl-ethoxy)-phenylamino]-thiazol-5-yl]-(2,3-dihydro-benzo[1,4]dioxin-6-yl)-methanone] | 3200 | 85 | 610
2 | Cc1ccc(C(=O)c2sc(Nc3ccc(OC4CCNC4)cc3)nc2N)cc1F (stereo not drawn) [Example 94, [4-Amino-2-[4-(pyrrolidin-3-yloxy)-phenylamino]-thiazol-5-yl]-(3-fluoro-4-methyl-phenyl)-methanone; Compound With Acetic Acid] | 2040 | 86 | 682
3 | Nc1nc(Nc2ccc(OC3CCCNC3)cc2)sc1C(=O)c1cccc(F)c1 (stereo not drawn) [Example 46, [4-Amino-2-[4-(piperidin-3-yloxy)-phenylamino]-thiazol-5-yl]-(3-fluoro-phenyl)-methanone] | 1140 | 65 | 416
4 | Cc1ccc(C(=O)c2sc(Nc3ccc(OCCN(C)C)cc3)nc2N)cc1F [Example 73, [4-Amino-2-[4-(2-dimethylamino-ethoxy)-phenylamino]-thiazol-5-yl]-(3-fluoro-4-methyl-phenyl)-methanone] | 5990 | 101 | 1170
5 | Nc1nc(Nc2ccc(OCCN3CCOCC3)cc2)sc1C(=O)c1ccc2c(c1)OCO2 [Example 56, [4-Amino-2-[4-(2-morpholin-4-yl-ethoxy)-phenylamino]-thiazol-5-yl]-benzo[1,3]dioxol-5-yl-methanone] | 3020 | 29 | 155
6 | Cc1ccc(C(=O)c2sc(Nc3ccc(OCC(C)(C)N(C)C)cc3)nc2N)cc1F [Example 75, [4-Amino-2-[4-(2-dimethylamino-2-methyl-propoxy)-phenylamino]-thiazol-5-yl]-(3-fluoro-4-methyl-phenyl)-methanone] | 4240 | 97 | 578
7 | CCNCCCOc1ccc(Nc2nc(N)c(C(=O)c3ccc(OC)c(F)c3)s2)cc1 [Example 148, [4-Amino-2-[4-(3-ethylamino-propoxy)-phenylamino]-thiazol-5-yl]-(3-fluoro-4-methoxy-phenyl)methanone] | 1910 | 67 | 519
8 | COc1ccc(C(=O)c2sc(Nc3ccc(OC4CCCNC4)cc3)nc2N)cc1F (stereo not drawn) [Example 97, [4-Amino-2-[4-(piperidin-3-yloxy)-phenylamino]-thiazol-5-yl]-(3-fluoro-4-methoxy-phenyl)-methanone] | 3740 | 96 | 1720
9 | Cc1cccc(C(=O)c2sc(Nc3ccc(OC4CCNC4)cc3)nc2N)c1 (stereo not drawn) [Example 91, [4-Amino-2-[4-(pyrrolidin-3-yloxy)-phenylamino]-thiazol-5-yl]-m-tolyl-methanone; Compound With Acetic Acid] | 817 | 67 | 471
10 | CCc1cccc(C(=O)c2sc(Nc3ccc(OC4CCCNC4)cc3)nc2N)c1 (stereo not drawn) [Example 98, [4-Amino-2-[4-(piperidin-3-yloxy)-phenylamino]-thiazol-5-yl]-(3-ethyl-phenyl)-methanone] | 1230 | 34 | 523
11 | COc1ccc(C(=O)c2sc(Nc3ccc(OCCN4CCCC4)cc3)nc2N)cc1[N+](=O)[O-] [Example 48, [4-Amino-2-[4-(2-pyrrolidin-1-yl-ethoxy)-phenylamino]-thiazol-5-yl]-(4-methoxy-3-nitro-phenyl)-methanone] | 3160 | 85 | 1550
12 | CCCc1cc(C(=O)c2sc(Nc3ccc(OC4CCCNC4)cc3)nc2N)ccc1O (stereo not drawn) [Example 99, [4-Amino-2-[4-(piperidin-3-yloxy)-phenylamino]-thiazol-5-yl]-(4-hydroxy-3-propyl-phenyl)-methanone] | 158 | 38 | 174
13 | COc1ccc(C(=O)c2sc(Nc3ccc(OCCCN)cc3)nc2N)cc1F [Example 147, [4-Amino-2-[4-(3-amino-propoxy)-phenylamino]-thiazol-5-yl]-(3-fluoro-4-methoxy-phenyl)-methanone] | 1730 | 97 | 578
14 | Nc1nc(Nc2ccc(OCCN3CCOCC3)cc2)sc1C(=O)c1cccc(F)c1 [Example 47, [4-Amino-2-[4-(2-morpholin-4-yl-ethoxy)-phenylamino]-thiazol-5-yl]-(3-fluoro-phenyl)-methanone] | 1080 | 73 | 196
15 | Nc1nc(Nc2ccc(OC[C@@H]3CCCN3)cc2)sc1C(=O)c1cccc(F)c1 [Example 3, [4-Amino-2-[4-(pyrrolidin-2-ylmethoxy)-phenylamino]-thiazol-5-yl]-(3-fluoro-phenyl)-methanone] | 1170 | 38 | 440
16 | COc1ccc(C(=O)c2sc(Nc3ccc(OCCN(C)C)cc3)nc2N)cc1[N+](=O)[O-] [Example 49, [4-Amino-2-[4-(2-dimethylamino-ethoxy)-phenylamino]-thiazol-5-yl]-(4-methoxy-3-nitro-phenyl)-methanone] | 4300 | 88 | 2390
17 | CCCc1cc(C(=O)c2sc(Nc3ccc(OC4CCNC4)cc3)nc2N)ccc1O (stereo not drawn) [Example 90, [4-Amino-2-[4-(pyrrolidin-3-yloxy)-phenylamino]-thiazol-5-yl]-(4-hydroxy-3-propyl-phenyl)-methanone; Compound With Acetic Acid] | 130 | 43 | 228
18 | CCCc1cc(C(=O)c2sc(Nc3ccc(OCCN(C)C)cc3)nc2N)ccc1O [Example 106, [4-Amino-2-[4-(2-dimethylamino-ethoxy)-phenylamino]-thiazol-5-yl-](4-hydroxy-3-propyl-phenyl)-methanone; Compound With Acetic Acid] | 272 | 17 | 344
19 | CCN1CCCC(Oc2ccc(Nc3nc(N)c(C(=O)c4ccc(C)c(F)c4)s3)cc2)C1 (stereo not drawn) [Example 87, [4-Amino-2-[4-(1-ethyl-piperidin-3-yloxy)-phenylamino]-thiazol-5-yl]-(3-fluoro-4-methyl-phenyl)-methanone] | 957 | 74 | 451
20 | CCN1CCC(Oc2ccc(Nc3nc(N)c(C(=O)c4ccc(C)c(F)c4)s3)cc2)C1 (stereo not drawn) [Example 86, [4-Amino-2-[4-(1-ethyl-pyrrolidin-3-yloxy)-phenylamino]-thiazol-5-yl]-(3-fluoro-4-methyl-phenyl)-methanone] | 1640 | 97 | 977
21 | CN(C)C(C)(C)COc1ccc(Nc2nc(N)c(C(=O)c3cccc(F)c3)s2)cc1 [Example 39, [4-Amino-2-[4-(2-dimethylamino-2-methyl-propoxy)-phenylamino]-thiazol-5-yl]-(3-fluoro-phenyl)-methanone] | 850 | 92 | 613
22 | CCN(CC)CCOc1ccc(Nc2nc(N)c(C(=O)c3ccc4c(c3)CCO4)s2)cc1 [Example 142, [4-Amino-2-[4-(2-diethylamino-ethoxy)-phenylamino]-thiazol-5-yl]-(2,3-dihydro-benzofuran-5-yl)-methanone] |  | 100 | 6430
23 | CCN(CC)CCOc1ccc(Nc2nc(N)c(C(=O)c3ccc4c(c3)C(C)CO4)s2)cc1 (stereo not drawn) [Example 139, [4-Amino-2-[4-(2-diethylamino-ethoxy)-phenylamino]-thiazol-5-yl]-(3-methyl-2,3-dihydro-benzofuran-5-yl)-methanone] |  | 70 | 
